Results taken from patent US9867841B2, “Compounds, compositions and methods using E-selectin antagonists for mobilization of hematopoietic cells” (GLYCOMIMETICS, INC., priority 2012, dated 2018).

Tested on: WBC, lymphocytes, monocytes, eosinophils, and neutrophils in circulation
Test: Mobilization of blood cells in CD-1 mice (Example 5, FIG. 5)
Assay type: in vivo
Conditions: AMD3100 dosed at 3 mg/kg
Description: Blood was collected from the animals at 2, 3, and 6 hours post dosing and analyzed for levels of total white blood cells (WBC) (Figure SA), neutrophils (FIG. 5B), eosinophils (FIG. 5C), lymphocytes (FIG. 5D), monocytes (FIG. 5E).
Blood was collected from the animals at 2, 3, and 6 hours post dosing and analyzed for levels of blood cells (WBC, lymphocytes, monocytes, eosinophils, and neutrophils) by standard CBC differential analyses methods.

c1cc(CN2CCCNCCNCCCNCC2)ccc1CN1CCCNCCNCCCNCC1 [AMD3100]
level and timing of WBC mobilization compared with Compound 25: generally equivalent to that elicited by Compound 25
